Laboratory results from PubChem BioAssay (NCI).
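Assay format: 96-well plates, 48-hour exposure. GI50 = concentration required for 50% inhibition of growth. TGI marks complete inhibition of growth.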

Experiments:
Experiment in all cases: NCI tumour cell line growth inhibition, 48 h
DU-145 prostate = system: DU-145 prostate
HCT-15 colon = system: HCT-15 colon
UACC-257 melanoma = system: UACC-257 melanoma
SNB-75 CNS = system: SNB-75 CNS
HCC-2998 colon = system: HCC-2998 colon
M14 melanoma = system: M14 melanoma
HS 578T breast = system: HS 578T breast
PC-3 prostate = system: PC-3 prostate
COLO 205 colon = system: COLO 205 colon
CCRF-CEM leukemia = system: CCRF-CEM leukemia
SF-268 CNS = system: SF-268 CNS
SW-620 colon = system: SW-620 colon
MDA-MB-231 breast = system: MDA-MB-231 breast
OVCAR-8 ovarian = system: OVCAR-8 ovarian
U251 CNS = system: U251 CNS
SK-MEL-28 melanoma = system: SK-MEL-28 melanoma
RPMI-8226 leukemia = system: RPMI-8226 leukemia
T-47D breast = system: T-47D breast
RXF 393 renal = system: RXF 393 renal
SK-MEL-5 melanoma = system: SK-MEL-5 melanoma
KM12 colon = system: KM12 colon
OVCAR-4 ovarian = system: OVCAR-4 ovarian
786-0 renal = system: 786-0 renal
ACHN renal = system: ACHN renal
MOLT-4 leukemia = system: MOLT-4 leukemia
UACC-62 melanoma = system: UACC-62 melanoma
SK-MEL-2 melanoma = system: SK-MEL-2 melanoma
SF-295 CNS = system: SF-295 CNS
HL-60(TB) leukemia = system: HL-60(TB) leukemia
OVCAR-3 ovarian = system: OVCAR-3 ovarian

Work on Cc1noc2c(Cc3ccccc3)nn(CC(=O)N/N=C/c3ccc(F)cc3)c(=O)c12 yielded a GI50 (DU-145 prostate) of over 100 µM, a TGI (DU-145 prostate) of over 100 µM and a GI50 (HCT-15 colon) of over 100 µM. For the same compound, the TGI (HCT-15 colon) was over 100 µM, the GI50 (UACC-257 melanoma) was 78.1 µM and the TGI (UACC-257 melanoma) was over 100 µM. It also gave a GI50 (SNB-75 CNS) of 8.25 µM, a TGI (SNB-75 CNS) of 32.2 µM and a GI50 (HCC-2998 colon) of over 100 µM. It also gave a TGI (HCC-2998 colon) of over 100 µM, a GI50 (M14 melanoma) of 26.1 µM and a TGI (M14 melanoma) of over 100 µM. The GI50 (HS 578T breast) was 4.65 µM, the TGI (HS 578T breast) was 46.7 µM and the GI50 (PC-3 prostate) was 66.1 µM. It also gave a TGI (PC-3 prostate) of over 100 µM, a GI50 (COLO 205 colon) of over 100 µM and a TGI (COLO 205 colon) of over 100 µM. The GI50 (CCRF-CEM leukemia) was over 100 µM, the TGI (CCRF-CEM leukemia) was over 100 µM and the GI50 (SF-268 CNS) was 24.6 µM. For the same compound, the TGI (SF-268 CNS) was over 100 µM, the GI50 (SW-620 colon) was over 100 µM and the TGI (SW-620 colon) was over 100 µM. It also gave a GI50 (MDA-MB-231 breast) of 4.92 µM, a TGI (MDA-MB-231 breast) of 21.8 µM and a GI50 (OVCAR-8 ovarian) of 27.9 µM. The TGI (OVCAR-8 ovarian) was over 100 µM, the GI50 (U251 CNS) was 18.3 µM and the TGI (U251 CNS) was over 100 µM. For the same compound, the GI50 (SK-MEL-28 melanoma) was over 100 µM, the TGI (SK-MEL-28 melanoma) was over 100 µM and the GI50 (RPMI-8226 leukemia) was over 100 µM. The TGI (RPMI-8226 leukemia) was over 100 µM, the GI50 (T-47D breast) was 5.62 µM and the TGI (T-47D breast) was over 100 µM. It also gave a GI50 (RXF 393 renal) of 5.4 µM, a TGI (RXF 393 renal) of 21.2 µM and a GI50 (SK-MEL-5 melanoma) of 33.2 µM. It also gave a TGI (SK-MEL-5 melanoma) of over 100 µM, a GI50 (KM12 colon) of over 100 µM and a TGI (KM12 colon) of over 100 µM. It also gave a GI50 (OVCAR-4 ovarian) of 3.95 µM, a TGI (OVCAR-4 ovarian) of over 100 µM and a GI50 (786-0 renal) of 3.13 µM. The TGI (786-0 renal) was 12.4 µM, the GI50 (ACHN renal) was 4.88 µM and the TGI (ACHN renal) was 24.1 µM. It also gave a GI50 (MOLT-4 leukemia) of over 100 µM, a TGI (MOLT-4 leukemia) of over 100 µM and a GI50 (UACC-62 melanoma) of 20.9 µM. The TGI (UACC-62 melanoma) was 66.8 µM, the GI50 (SK-MEL-2 melanoma) was 16.3 µM and the TGI (SK-MEL-2 melanoma) was 33.3 µM. It also gave a GI50 (SF-295 CNS) of 3.33 µM, a TGI (SF-295 CNS) of 17.3 µM and a GI50 (HL-60(TB) leukemia) of over 100 µM. The TGI (HL-60(TB) leukemia) was over 100 µM and the GI50 (OVCAR-3 ovarian) was 87.1 µM.
